Measured values reported in patent US12221436B2, “Anthranilamides, their use as insecticide and processes for preparing the same” (PI INDUSTRIES LTD., priority 2018, dated 2025).

Legend:
[1] = test system: Bemisia tabaci; experiment: Example D: Bemisia tabaci, leaf dip method (cotton leaves); assay type: in vivo; settings: foliar, freshly emerged adults, 72 h after release, dead and moribund combined, read-out: percent mortality
Experimental: (§1) Test solutions were prepared according to the procedure described herein below (500 PPM):
(§2) • 1. Eppendorf Vortex mixer (ThermoMixer C) and 1.5 mL Eppendorf tubes • 2. Beaker—100 mL • 3. Micro-pipette Reagents: • 1. Surfactant Solution • 2. De-mineralized (DM) Water Procedure: • 1. Weigh 10 mg of the compound of the present invention to be tested in an Eppendorf Tube. • 2. Add 200 mg of the Surfactant Solution into the tube. • 3. Fix the tube in Eppendorf Vortex mixer and start vortexing at 2000 rpm. • 4. Mix on Vortex mixer for 30 min. After 30 min, observe the sample over a microscope at 400× resolution. • 5. Add 1.0 mL DM water into the tube, close the cap, shake the tube thoroughly and transfer the contents, along with the beads, into a beaker. • 6. To rinse the tube, add another 1.0 mL of DM water into the tube, close the cap, shake well and transfer this into the same beaker. • 7. Repeat […] one more time so that the tube is rinsed well and all the compound of the present invention is transferred to the beaker. • 8. Add 16.8 mL of DM water into the beaker and stir well. • 9. Immediately use this sample for biological testing. • 10. Further dilutions can be prepared by taking appropriate quantity of the aliquot of Step 8, immediately after stirring, and diluting as per requirement. The sample solution must be well mixed just before biological testing.
Leaf dip method was used for screening, wherein the required quantity of the compounds were weighed and dissolved in the test solution into the tube and vortex at 2000 rpm with Zirconia beads for 90 min and for proper mixing, then mixed with 0.01% Triton-X solution to get the desired test concentration. Cotton leaves were dipped in the solution for 10 seconds, shade dried for 20 min and then leaves were kept in glass units with petiole dipped in water. […] Observations on dead, moribund and live […] were recorded at 72 h after the release. Percent mortality was calculated by combining dead and moribund adults. […]

[2] = test system: Myzus persicae; experiment: Example E: Myzus persicae, leaf dip method (capsicum leaves); assay type: in vivo; settings: foliar, third instar nymphs, 72 h after release, dead and moribund combined, read-out: percent mortality
Experimental: as §1, §2
Leaf dip method was used for screening, wherein the required quantity of the compounds were weighed and dissolved in the test solution into the tube and vortex at 2000 rpm with Zirconia beads for 90 min and for proper mixing, then mixed with 0.01% Triton-X solution to get the desired test concentration. Capsicum leaves were dipped in the solution for 10 seconds, shade dried for 20 min and then leaves were kept in glass units with petiole dipped in water. Known numbers of third instar nymphs were released and were kept in the plant growth chamber at a temperature of 25° C. and Relative Humidity of 70%. Observations on dead, moribund and live nymphs were recorded at 72 h after the release. Percent mortality was calculated by combining dead and moribund nymphs. The following compound numbers

Structure (SMILES) | mortality at 300 ppm [1] | mortality at 300 ppm [2]
Cc1cc(Cl)cc(C(=O)NC(C)(C)C)c1NC(=O)c1cc(OC2CSC2)nn1-c1ncccc1Cl [Compound 97, N-(2-(tert-butylcarbamoyl)-4-chloro-6-methylphenyl)-1-(3-chloropyridin-2-yl)-3-(thietan-3-yloxy)-1H-pyrazole-5-carboxamide] | > 50% | > 50%
Cc1cc(Cl)cc(C(=O)NC(C)(C)C)c1NC(=O)c1cc(OC2CS(=O)(=O)C2)nn1-c1ncccc1Cl [Compound 99, N-(2-(tert-butylcarbamoyl)-4-chloro-6-methylphenyl)-1-(3-chloropyridin-2-yl)-3-((1,1-dioxidothietan-3-yl)oxy)-1H-pyrazole-5-carboxamide] | > 50% | –
CC(C)(C)NC(=O)c1cc(Cl)cc(Cl)c1NC(=O)c1cc(OC2CSC2)nn1-c1ncccc1Cl [Compound 176, N-(2-(tert-butylcarbamoyl)-4,6-dichlorophenyl)-1-(3-chloropyridin-2-yl)-3-(thietan-3-yloxy)-1H-pyrazole-5-carboxamide] | > 50% | > 50%
